Measurements taken from article PMC7504216 (Molecules, 2020).
Read-outs that look alike come from different tables or passages of the source.

Key:
[1] = tested on: BChE; conditions: cited from earlier work; for BChE inhibition: 25 μg/mL (sphondin 115.7 μM, pimpinellin 101.5 μM), from Heracleum platytaenium
[2] = biological target: T1, recombinant human MAO-A (Homo sapiens, UniProt P21397); assay: biochemical; assay type: biochemical; conditions: for remaining activity at 10 µM: read-out: Residual Activity at 10 µM (%) MAO-A
T1 construct: purchased Sigma-Aldrich
T1 sequence (P21397 1-527): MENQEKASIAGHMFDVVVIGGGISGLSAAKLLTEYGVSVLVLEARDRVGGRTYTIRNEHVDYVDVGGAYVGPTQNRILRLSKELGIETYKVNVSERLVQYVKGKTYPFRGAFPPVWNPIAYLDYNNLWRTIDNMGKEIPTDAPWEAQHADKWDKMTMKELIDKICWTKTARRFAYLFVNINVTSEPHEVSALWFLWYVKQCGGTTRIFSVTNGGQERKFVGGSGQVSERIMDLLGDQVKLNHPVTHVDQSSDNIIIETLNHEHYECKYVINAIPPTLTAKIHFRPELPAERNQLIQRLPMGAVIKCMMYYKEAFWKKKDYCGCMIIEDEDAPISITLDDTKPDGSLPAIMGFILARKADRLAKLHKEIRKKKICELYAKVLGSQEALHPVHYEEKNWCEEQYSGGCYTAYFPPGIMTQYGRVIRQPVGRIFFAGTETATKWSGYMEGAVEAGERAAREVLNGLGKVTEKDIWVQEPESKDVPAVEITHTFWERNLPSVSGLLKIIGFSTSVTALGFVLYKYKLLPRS

[3] = biological target: T2, recombinant human MAO-B (Homo sapiens, UniProt P27338); assay: biochemical; assay type: biochemical; conditions: for remaining activity at 10 µM: read-out: Residual Activity at 10 µM (%) MAO-B
T2 construct: purchased Sigma-Aldrich
T2 sequence (P27338 1-520): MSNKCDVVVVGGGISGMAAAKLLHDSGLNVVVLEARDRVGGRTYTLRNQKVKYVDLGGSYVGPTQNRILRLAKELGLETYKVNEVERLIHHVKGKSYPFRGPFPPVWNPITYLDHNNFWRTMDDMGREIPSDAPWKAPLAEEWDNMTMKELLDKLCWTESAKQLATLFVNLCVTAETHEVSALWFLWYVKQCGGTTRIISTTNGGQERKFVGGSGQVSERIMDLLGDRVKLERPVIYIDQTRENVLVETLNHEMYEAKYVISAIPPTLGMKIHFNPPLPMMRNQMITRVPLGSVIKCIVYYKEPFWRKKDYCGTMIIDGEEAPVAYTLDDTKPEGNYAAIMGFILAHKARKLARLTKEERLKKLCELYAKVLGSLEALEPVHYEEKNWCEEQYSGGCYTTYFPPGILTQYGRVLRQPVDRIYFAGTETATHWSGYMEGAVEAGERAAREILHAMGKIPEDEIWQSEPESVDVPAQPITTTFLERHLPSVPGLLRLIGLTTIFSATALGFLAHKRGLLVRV

[4] = biological target: T3, AChE from Electrophorus electricus (Electrophorus electricus, UniProt O42275); assay: AChE inhibition assay (Ellman, ATCI); assay type: biochemical; conditions: for remaining activity at 10 µM: read-out: Residual Activity at 10 µM (%) AChE; for Residual Activity at 10 µM (%) AChE: inhibitor 10 µM, mean ± SE, triplicate
T3 construct: purchased Sigma-Aldrich
T3 sequence (O42275 24-633): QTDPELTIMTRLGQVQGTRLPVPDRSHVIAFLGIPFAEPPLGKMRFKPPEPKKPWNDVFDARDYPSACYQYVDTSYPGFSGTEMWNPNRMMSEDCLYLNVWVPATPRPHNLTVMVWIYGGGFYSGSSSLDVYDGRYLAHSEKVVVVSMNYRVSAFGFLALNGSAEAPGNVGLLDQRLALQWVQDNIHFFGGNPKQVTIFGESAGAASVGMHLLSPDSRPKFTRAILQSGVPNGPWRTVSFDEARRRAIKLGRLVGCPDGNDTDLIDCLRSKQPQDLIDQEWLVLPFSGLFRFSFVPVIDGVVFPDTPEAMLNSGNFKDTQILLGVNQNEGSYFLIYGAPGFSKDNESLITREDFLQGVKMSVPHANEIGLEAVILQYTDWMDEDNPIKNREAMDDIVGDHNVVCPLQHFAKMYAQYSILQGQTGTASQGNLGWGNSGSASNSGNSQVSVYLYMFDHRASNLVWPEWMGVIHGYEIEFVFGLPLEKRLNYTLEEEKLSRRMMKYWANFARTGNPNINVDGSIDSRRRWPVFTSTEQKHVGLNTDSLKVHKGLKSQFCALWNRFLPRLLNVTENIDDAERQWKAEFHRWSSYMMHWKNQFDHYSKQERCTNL

[5] = biological target: T4, BChE from equine serum (Equus caballus, UniProt P81908); assay: BChE inhibition assay (Ellman, BTCI) and kinetics; assay type: biochemical; conditions: for remaining activity at 10 µM: read-out: Residual Activity at 10 µM (%) BChE; for Residual Activity at 10 µM (%) BChE: inhibitor 10 µM, mean ± SE, triplicate
T4 construct: BChE from equine serum; purchased Sigma-Aldrich; host or cells: equine serum
T4 sequence (P81908 whole entry): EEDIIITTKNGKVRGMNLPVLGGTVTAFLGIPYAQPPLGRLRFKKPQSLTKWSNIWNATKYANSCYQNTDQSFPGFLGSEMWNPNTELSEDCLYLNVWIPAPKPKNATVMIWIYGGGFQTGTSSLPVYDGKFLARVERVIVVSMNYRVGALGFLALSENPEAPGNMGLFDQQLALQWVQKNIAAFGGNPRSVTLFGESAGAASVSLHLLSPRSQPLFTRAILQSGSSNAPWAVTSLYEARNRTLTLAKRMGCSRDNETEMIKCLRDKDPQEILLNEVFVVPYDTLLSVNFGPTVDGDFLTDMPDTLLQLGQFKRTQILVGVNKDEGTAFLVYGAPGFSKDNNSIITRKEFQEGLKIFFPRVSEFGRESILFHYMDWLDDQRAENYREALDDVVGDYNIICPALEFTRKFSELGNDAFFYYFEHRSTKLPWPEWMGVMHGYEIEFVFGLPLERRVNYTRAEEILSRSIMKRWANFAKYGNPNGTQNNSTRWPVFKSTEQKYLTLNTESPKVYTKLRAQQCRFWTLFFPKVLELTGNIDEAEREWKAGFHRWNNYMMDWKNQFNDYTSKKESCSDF

[6] = biological target: T4, BChE from equine serum; assay: Reversibility of BChE inhibition by dialysis; assay type: biochemical
[7] = biological target: T4, BChE from equine serum; assay: Reversibility of BChE inhibition by dilution method; assay type: biochemical
[8] = biological target: T2, recombinant human MAO-B; assay: Reversibility of MAO-B inhibition by dialysis; assay type: biochemical
[9] = tested on: MAO-B; parameters: method as in PMID 28634060; conditions: cited from earlier work
[10] = tested on: AChE; conditions: cited from earlier work
[11] = inhibitor 10 µM, mean ± SE, triplicate

CC(=O)O[C@@H]1CCC(C)(C)c2ccc3c(c21)C(=O)C(=O)C1=C3OC[C@@H]1C [(1R,15R)-1-acetoxycryptotanshinone]
IC50 [1]: 2.4 µM

COc1c(CC=C(C)C)c(O)cc2oc(=O)c3c4ccc(O)cc4oc3c12 [GC, glycyrol]
IC50 [2]: > 40 µM | remaining activity at 10 µM [2]: 70.5 ± 1.61% | IC50 [3]: 29.5 ± 0.67 µM | remaining activity at 10 µM [3]: 74.2 ± 3.46% | IC50 [4]: 14.8 ± 0.19 µM | remaining activity at 10 µM [4]: 46.1 ± 4.4% | IC50 [5]: 7.22 ± 0.37 µM | Ki [5]: 4.47 µM | selectivity index (SI) for BChE with respect to AChE [5]: 2.0 | mode of BChE inhibition ([5]; Lineweaver-Burk plots): reversible, noncompetitive inhibitor | remaining activity at 10 µM [5]: 44.6 ± 5.36% | Residual BChE activity, undialyzed (AU) ([6]; 2 × IC50 (GC […]; tacrine 0.03 µM), 30 min preincubation): 34.6% | Residual BChE activity, dialyzed (AD) ([6]; 2 × IC50 (GC […]; tacrine 0.03 µM), 6 h dialysis): 58.4% | reversibility of BChE inhibition ([6]; dialysis and dilution methods): reversible inhibitor | residual BChE activity, preincubated at 50 × IC50 then diluted to 1 × IC50 ([7]; 15 min preincubation, after dilution): 40.1% | residual BChE activity, control at 1 × IC50 (before dilution) ([7]; GC at 1 × IC50): 51.1% | residual BChE activity at 50 × IC50 ([7]; GC at 50 × IC50): 10.3%

CC1(C)[C@@H](O)CC[C@]2(C)[C@H]3C(=O)C=C4[C@@H]5C[C@@](C)(C(=O)O)CC[C@]5(C)CC[C@@]4(C)[C@]3(C)CC[C@@H]12 [Glycyrrhetinic acid, glycyrrhetinic acid]
IC50 [2]: > 40 µM | remaining activity at 10 µM [2, 11]: 96.3 ± 2.64% | IC50 [3]: > 40 µM | remaining activity at 10 µM [3, 11]: 84 ± 2.16% | remaining activity at 10 µM [4]: 97.3 ± 1.61% | remaining activity at 10 µM [5]: 95 ± 4.12%

CC1(C)[C@@H](O[C@H]2O[C@H](C(=O)O)[C@@H](O)[C@H](O)[C@H]2O[C@@H]2O[C@H](C(=O)O)[C@@H](O)[C@H](O)[C@H]2O)CC[C@]2(C)[C@H]3C(=O)C=C4[C@@H]5C[C@@](C)(C(=O)O)CC[C@]5(C)CC[C@@]4(C)[C@]3(C)CC[C@@H]12 [Glycyrrhizin, glycyrrhizin]
IC50 [2]: > 40 µM | remaining activity at 10 µM [2, 11]: 95.8 ± 3.3% | IC50 [3]: > 40 µM | remaining activity at 10 µM [3, 11]: 93.1 ± 4.32% | remaining activity at 10 µM [4]: 97.7 ± 2.14% | remaining activity at 10 µM [5]: 82.3 ± 7.95%

O=C(/C=C/c1ccc(O[C@@H]2O[C@H](CO)[C@@H](O)[C@H](O)[C@H]2O)cc1)c1ccc(O)cc1O [Isoliquiritin, isoliquiritin]
IC50 [2]: > 40 µM | remaining activity at 10 µM [2]: 81.8 ± 1.61% | IC50 [3]: > 40 µM | remaining activity at 10 µM [3]: 75.4 ± 2.27% | IC50 [4]: > 40 µM | remaining activity at 10 µM [4]: 69.9 ± 2.2% | IC50 [5]: > 40 µM | remaining activity at 10 µM [5]: 91.9 ± 7.16%

O=C1C[C@@H](c2ccc(O)cc2)Oc2cc(O)ccc21 [LG, Liquiritigenin]
IC50 [2]: 0.27 ± 0.041 µM | remaining activity at 10 µM [2]: 0.46 ± 1.6% | mode of MAO-B inhibition ([3]; Lineweaver-Burk plots): reversible competitive inhibitor | remaining activity at 10 µM [3]: 0% | IC50 [4]: > 40 µM | remaining activity at 10 µM [4]: 95.3 ± 3.59% | IC50 [5]: > 40 µM | remaining activity at 10 µM [5]: 82.5 ± 0.26% | reversibility of MAO-B inhibition [8]: reversibly inhibited

O=C1C[C@@H](c2ccc(O[C@@H]3O[C@H](CO)[C@@H](O)[C@H](O)[C@H]3O)cc2)Oc2cc(O)ccc21 [Liquiritin, liquiritin]
IC50 [2]: > 40 µM | remaining activity at 10 µM [2]: 93.5% | IC50 [3]: > 40 µM | remaining activity at 10 µM [3]: 90.2 ± 0.56% | IC50 [4]: > 40 µM | remaining activity at 10 µM [4]: 93.5 ± 5.12% | IC50 [5]: > 40 µM | remaining activity at 10 µM [5]: 95.5 ± 4.67%

COc1ccc(-c2cc(=O)c3c(O)cc(O)cc3o2)cc1 [acacetin]
IC50 [9]: 0.17 µM

COc1cc2c(cc1O)C[C@H]1c3c(cc(O)c(OC)c3-2)CCN1C [boldine]
IC50 [1]: 321 µM

COc1ccc(CCCc2ccc(O)cc2)c(O)c1 [broussonin A]
IC50 [1]: 7.5 µM

COc1ccc([C@@H]2CC(=O)c3c(O)cc(O[C@@H]4O[C@H](CO[C@@H]5O[C@@H](C)[C@H](O)[C@@H](O)[C@H]5O)[C@@H](O)[C@H](O)[C@H]4O)cc3O2)cc1O [hesperidin]
IC50 [10]: 0.00345 µM

CC(C)=CCC[C@]1(C)[C@@H](CC=C(C)C)C[C@@]2(CC=C(C)C)C(=O)[C@]1(C(=O)C(C)C)C(=O)C(CC=C(C)C)=C2O [hyperforin]
IC50 [1]: 142 µM

Cc1cc2c(cc(=O)c1O)[C@@]1(CO)CCCC(C)(C)[C@@H]1CC2 [isograndifoliol]
IC50 [1]: 0.9 µM

CCC(C)C(=O)c1c(O)c2c(c3c(-c4ccccc4)cc(=O)oc13)OC(C)(CCC=C(C)C)C=C2 (stereo not shown) [mesuagenin B]
IC50 ([10]; from Mesua elegans): 0.7 µM

CC(C)=CCc1c(O)ccc2ccc(=O)oc12 [osthenol]
IC50 ([10]; from Angelica pubescens): 25.3 µM

COc1c(OC)c2occc2c2oc(=O)ccc12 [pimpinellin]
BChE inhibition [1]: 78.02%

COc1cc2ccc(=O)oc2cc1O [scopoletin]
IC50 [1]: 9.11 µM

COc1cc2ccc(=O)oc2c2ccoc12 [sphondin]
BChE inhibition [1]: 63.69%

COc1c2occc2cc2ccc(=O)oc12 [xanthotoxin]
IC50 ([10]; from Ferula lutea): 0.76 µM

cremaphenanthrene F
IC50 [1]: 14.6 µM

hyuganin C
IC50 [1]: 38.9 µM

isoliquiritin apioside
Residual Activity at 10 µM (%) MAO-A [2, 11]: 86.6 ± 3.27% | Residual Activity at 10 µM (%) MAO-B [3, 11]: 80.3 ± 5.57% | Residual Activity at 10 µM (%) AChE [4]: 93.5 ± 3.07% | Residual Activity at 10 µM (%) BChE [5]: 95.6 ± 0.88%

liquiritin apioside
Residual Activity at 10 µM (%) MAO-A [2, 11]: 86.9 ± 2.41% | Residual Activity at 10 µM (%) MAO-B [3, 11]: 94.8 ± 0.57% | Residual Activity at 10 µM (%) AChE [4]: 63.5 ± 2.56% | Residual Activity at 10 µM (%) BChE [5]: 97.6 ± 0.93%

sagachromanol I
IC50 [1]: 10.8 µM

tannic acid
IC50 [10]: 0.087 µM
